This is an account of results in ChEMBL document CHEMBL2311494, “Syntheses and evaluation of the antioxidant activity of novel methoxypsoralen derivatives” (Eur J Med Chem, 2013).

SMILES strings stand for the structures. Active and inactive are the calls of the source. The rule behind the calls is not given here.

For data set [1], the system named is Radical scavenging activity. The experiment in a line: Antioxidant activity assessed as DPPH radical scavenging activity at 100 uM after 20 mins by spectrophotometric analysis. The format is functional.
Data set [2] concerns Radical scavenging activity. The experiment in a line: Antioxidant activity assessed as DPPH radical scavenging activity at 100 uM after 60 mins by spectrophotometric analysis. The format is functional.
Data set [3] in a line: Inhibition of soybean LOX using sodium linoleate as substrate by spectrophotometric analysis. Also on record: species or system Glycine max.
Data set [4] in a line: Antioxidant activity assessed as inhibition of AAPH-induced linoleic acid lipid peroxidation at 100 uM by spectrophotometric analysis. The format is functional.
A further data set relates to Rattus norvegicus. The experiment in a line: Toxicity against Fischer-344 rat up to 0.1 mmol/kg, ip. The format is organism-based. Conditions: in vivo.
The nature of data set [5]: Cytotoxicity against human 1BR3 cells assessed as cell viability at 1 uM after 24 hrs by MTT assay. The format is cell-based. Conditions: read-out: Activity.
The nature of data set [6]: Cytotoxicity against human 1BR3 cells assessed as cell viability at 20 uM after 24 hrs by MTT assay. The format is cell-based. Conditions: read-out: Activity.
Data set [7] can be described thus: Cytotoxicity against human 1BR3 cells assessed as cell viability at 100 uM after 24 hrs by MTT assay. It counts as cell-based. Conditions: read-out: Activity.
Data set [8] in a line: Cytotoxicity against human 1BR3 cells assessed as cell viability at 10 uM after 24 hrs by MTT assay. The format is cell-based. To be noted: read-out: Activity.
A short description of data set [9]: Cytotoxicity against human 1BR3 cells assessed as cell viability at 50 uM after 24 hrs by MTT assay. The format is cell-based. Conditions: read-out: Activity.

For the compound `CC(Cc1ccc(O)c(O)c1)C(C)Cc1ccc(O)c(O)c1` (configuration not stated), the Activity in data set [1] came out at 81%; in data set [2], 83%.
`CC(=O)c1c(C)oc2c(C)c3oc(=O)cc(C)c3cc12`: the Activity in data set [1] and in data set [2] was 14% in each case. Further, the IC50 in data set [3] (read-out: IC50) was found to be 79 µM. Further, the inhibition in data set [4] was determined as 67%.
As to `CCOC(=O)/C=C/c1c2occc2c(OC)c2ccc(=O)oc12`, the outcome in data set [1] and in [2] was inactive. The IC50 entry in data set [3] was “Not Active”. In the data set on Rattus norvegicus, the Activity result was “Non-toxic”. Also, the inhibition in data set [4] was 8%.
As to `O=c1ccc2c(O)c3ccoc3c(Br)c2o1`, the viability at 24 h, 1 µM in [5] turned out to be 97%. In addition, the viability at 24 h, 20 µM in data set [6] amounted to 95.2%. Besides, the viability at 24 h, 100 µM in data set [7] was determined as 91%. Also, the viability at 24 h, 10 µM in data set [8] was 92.8%. In [9], the viability at 24 h, 50 µM was 91.6%. Further, the Activity was determined as 20% in data set [1] and 56% in [2]. The IC50 in data set [3] (read-out: IC50) was found to be 30.5 µM. The inhibition in data set [4] came to 81%.
In the case of `COc1c2ccoc2c(/C=C/C(=O)O)c2oc(=O)ccc12`, the Activity in data set [1] is 14%; in data set [2], 14%; with Rattus norvegicus, “Non-toxic”. Further, the IC50 in [3] (read-out: IC50) is 83 µM. Further, the inhibition in data set [4] came to 55%.
As for `Cc1c(C)c2c(c(C)c1O)CCC(C)(C(=O)O)O2` (configuration not stated), the inhibition in [4] came to 63%.
On to `COc1c2occc2c(Br)c2ccc(=O)oc12`, for which the Activity in [1] and in data set [2] was 8% throughout. Moreover, the IC50 in data set [3] (read-out: IC50) amounted to 40 µM. In data set [4], the inhibition is 62%.
As to `COc1c2occc2c(/C=C/C(=O)O)c2ccc(=O)oc12`, the Activity in data set [1] is 7%; in data set [2], 7%; in the data set with Rattus norvegicus, “Non-toxic”. Further, in data set [3] (read-out: IC50), the IC50 was 50 µM. For the same compound, the inhibition in data set [4] amounted to 62%.
Consider `COc1c2occc2cc2ccc(=O)oc12` [METHOXSALEN], for which, in [5], the viability at 24 h, 1 µM came to 101%. Further, the viability at 24 h, 20 µM in [6] amounted to 96.7%. Also, in [7], the viability at 24 h, 100 µM is 89.6%. The viability at 24 h, 10 µM in [8] was 98.1%. Further, the viability at 24 h, 50 µM in data set [9] turned out to be 92%. In addition, the Activity in data set [1] and in data set [2] was 16% in each case. Further, the IC50 in [3] (read-out: IC50) turned out to be 50 µM. Also, the inhibition in data set [4] was determined as 5%.
For `COc1c2ccoc2c(/C=C/C(=O)OC(C)(C)C)c2oc(=O)ccc12`, the result in data set [1] and in data set [2] was inactive. Besides, the IC50 entry in [3] is listed as “Not Active”. Moreover, the Activity result in the data set with Rattus norvegicus was “Non-toxic”. Moreover, the inhibition in [4] was determined as 79%.
As to `O=c1ccc2c(Br)c3ccoc3c(O)c2o1`, the Activity in data set [1] was 33%; in data set [2] it was 43%. In addition, in [3] (read-out: IC50), the IC50 turned out to be 50 µM. The inhibition in data set [4] came out at 83%.
Take `COc1c2occc2c(-c2ccc(/C=C/C(=O)O)cc2)c2ccc(=O)oc12`: the Activity in data set [1] was 41%; in [2], 44%; in the data set with Rattus norvegicus, “Non-toxic”. The IC50 in data set [3] (read-out: IC50) is 62 µM. Besides, the inhibition in data set [4] amounted to 12%.
For `COc1c2ccoc2c(-c2ccc(/C=C/C(=O)OC(C)(C)C)cc2)c2oc(=O)ccc12`, in that order: 8%, 12%, “Non-toxic”, 100 µM and 77%.
For the compound `O=c1ccc2cc3ccoc3c(O)c2o1` [XANTHOTOXOL], the Activity came out at 25% in [1] and 22% in [2]. The IC50 in [3] (read-out: IC50) is 89 µM. Also, in [4], the inhibition worked out at 5%.
Regarding `COc1c2occc2c(-c2ccc(C(=O)O)cc2)c2ccc(=O)oc12`, the Activity in data set [1] was 11%; in [2], 15%; in the data set on Rattus norvegicus it was “Non-toxic”. Further, the IC50 entry in data set [3] is given as “Not Active”. Further, the inhibition in data set [4] came out at 100%.
On to `COc1c2ccoc2c(-c2ccc(/C=C/C(=O)O)cc2)c2oc(=O)ccc12`, for which the viability at 24 h, 1 µM in [5] worked out at 65.6%. In data set [6], the viability at 24 h, 20 µM stood at 24.7%. The viability at 24 h, 100 µM in data set [7] was found to be 13.3%. Further, the viability at 24 h, 10 µM in data set [8] amounted to 55.6%. Further, the viability at 24 h, 50 µM in [9] was 18.5%. The Activity in [1] was 22%; in data set [2], 28%; in the data set with Rattus norvegicus, “Non-toxic”. The IC50 in data set [3] (read-out: IC50) is 24 µM. In addition, in [4], the inhibition stood at 55%.
For the compound `COc1c2ccoc2c(-c2ccc(C(=O)O)cc2)c2oc(=O)ccc12`, the figures for the Activity (in data set [1]; in data set [2]; in the data set on Rattus norvegicus) were 22%, 19% and “Non-toxic”, respectively. In addition, in data set [3] (read-out: IC50), the IC50 was found to be 60 µM. Moreover, in data set [4], the inhibition is 66%.
As to `O=c1ccc2c(O)c3ccoc3cc2o1` [BERGAPTOL], the values for the Activity in data set [1] and in [2] were 34% and 36%, respectively. Besides, the IC50 in data set [3] (read-out: IC50) turned out to be 41.5 µM. Further, the inhibition in data set [4] turned out to be 95%.
For the compound `COc1c2occc2c(/C=C/C(=O)OCc2cccc(Oc3ccccc3)c2)c2ccc(=O)oc12`, the Activity in data set [1] is 7%; in data set [2], 9%; in the data set on Rattus norvegicus, “Non-toxic”. Also, the IC50 in data set [3] (read-out: IC50) turned out to be 55 µM. Also, in data set [4], the inhibition stood at 89%.
In the case of `Cc1oc2c(C)c3oc(=O)cc(C)c3cc2c1-c1ccc(C(=O)O)cc1`, the outcome in data set [1] and in data set [2] was inactive. Moreover, the IC50 result in [3] is reported as “Not Active”. In the data set on Rattus norvegicus, the Activity result is “Non-toxic”. For the same compound, the inhibition in data set [4] is 80%.
For the compound `COc1c2ccoc2c(Br)c2oc(=O)ccc12`, the Activity in data set [1] and in data set [2] was 7% in each case. Moreover, the IC50 in [3] (read-out: IC50) worked out at 90 µM. In addition, the inhibition in [4] was 83%.
Consider `Cc1oc2c(C)c3oc(=O)cc(C)c3cc2c1Br`, for which the result in [1] was inactive. For the same compound, the Activity in data set [2] was 100%. Also, the IC50 result in data set [3] is “Not Active”. Besides, the inhibition in data set [4] turned out to be 35%.
`CCOC(=O)/C=C/c1c2ccoc2c(OC)c2oc(=O)ccc12`: the Activity in [1] is 5%; in data set [2], 6%; with Rattus norvegicus it was “Non-toxic”. Also, the IC50 in [3] (read-out: IC50) was found to be 75 µM. Also, in data set [4], the inhibition was determined as 83%.
As to `COc1c2ccoc2cc2oc(=O)ccc12` [BERGAPTEN], the viability at 24 h, 1 µM in [5] was found to be 105%. In addition, the viability at 24 h, 20 µM in [6] turned out to be 99.4%. Also, in data set [7], the viability at 24 h, 100 µM was 88.9%. Besides, the viability at 24 h, 10 µM in data set [8] is 102%. Also, in data set [9], the viability at 24 h, 50 µM was found to be 91.7%. Moreover, the Activity in data set [1] and in data set [2] was 14% throughout. For the same compound, in data set [3], the IC50 result was “Not Active”. Besides, the inhibition in [4] was 49%.
Turning to `COc1c2occc2c(/C=C/C(=O)OC(C)(C)C)c2ccc(=O)oc12`, the Activity was 3% in [1], 3% in [2] and “Non-toxic” in the data set with Rattus norvegicus. Moreover, the IC50 entry in [3] was “Not Active”. Further, the inhibition in [4] worked out at 89%.
In the case of `CCOC(=O)/C=C/c1c(C)oc2c(C)c3oc(=O)cc(C)c3cc12`, the Activity in data set [1] is 8%; in data set [2] it was 60%; with Rattus norvegicus it was “Non-toxic”. In addition, the IC50 result in [3] is “Not Active”. For the same compound, the inhibition in data set [4] stood at 77%.
As to `COc1c2occc2c(C(C)=O)c2ccc(=O)oc12`, the Activity in data set [1] and in data set [2] was 8% throughout. Moreover, the IC50 in data set [3] (read-out: IC50) was 100 µM. The inhibition in data set [4] was 85%.
